Activity calls are given as the source filed them.
How the values were obtained:
[1] = inhibitors of HIV Env-driven cell fusion, dose response, cherry-pick (AID 652057); format: functional, cell-based
[2] = biological target: FAD-linked sulfhydryl oxidase ALR (Homo sapiens, UniProt P55789); assay: inhibitors of human ALR sulfhydryl oxidase, dose response, biochemical, H2O2 detection, luminescence, cherry-pick (AID 493248)
[3] = non-specific cell cytotoxicity, dose response, cytotoxicity control for PAX8 inhibitor project, plate reader, dry powder samples (AID 743021); format: functional, cell-based
[4] = Luminescence-based counterscreen assay for KLF5 inhibitors: dose response cell-based high throughput screening assay to identify cytotoxic compounds using the IEC-6 intestinal epithelial cell line. [Related pubchem assays: 1700 (Primary screen.), 1834 (Confirmation screen.), 1858 (Summary AID.), 1905 (Counterscreen.)]; format: functional
[5] = MC4R antagonists, dose response, counter-screen for LGR2 antagonist project, cell-based, plate reader, cherry pick (AID 743444); format: functional;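 further: transfected HEK 293 cells stimulated with alpha-MSH peptide; potency of inhibitors of the alpha-MSH evoked signal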
Aminopeptidase N = biological target: T1, Aminopeptidase N (Plasmodium falciparum FcB1/Columbia, UniProt O96935); assay: P. falciparum M1AAP inhibitors, biochemical, fluorogenic H-Leu-NHMec substrate, 1536-well (AID 1445); parameters: species or system Plasmodium falciparum 3D7, 3D7
T1 sequence (O96935 whole entry): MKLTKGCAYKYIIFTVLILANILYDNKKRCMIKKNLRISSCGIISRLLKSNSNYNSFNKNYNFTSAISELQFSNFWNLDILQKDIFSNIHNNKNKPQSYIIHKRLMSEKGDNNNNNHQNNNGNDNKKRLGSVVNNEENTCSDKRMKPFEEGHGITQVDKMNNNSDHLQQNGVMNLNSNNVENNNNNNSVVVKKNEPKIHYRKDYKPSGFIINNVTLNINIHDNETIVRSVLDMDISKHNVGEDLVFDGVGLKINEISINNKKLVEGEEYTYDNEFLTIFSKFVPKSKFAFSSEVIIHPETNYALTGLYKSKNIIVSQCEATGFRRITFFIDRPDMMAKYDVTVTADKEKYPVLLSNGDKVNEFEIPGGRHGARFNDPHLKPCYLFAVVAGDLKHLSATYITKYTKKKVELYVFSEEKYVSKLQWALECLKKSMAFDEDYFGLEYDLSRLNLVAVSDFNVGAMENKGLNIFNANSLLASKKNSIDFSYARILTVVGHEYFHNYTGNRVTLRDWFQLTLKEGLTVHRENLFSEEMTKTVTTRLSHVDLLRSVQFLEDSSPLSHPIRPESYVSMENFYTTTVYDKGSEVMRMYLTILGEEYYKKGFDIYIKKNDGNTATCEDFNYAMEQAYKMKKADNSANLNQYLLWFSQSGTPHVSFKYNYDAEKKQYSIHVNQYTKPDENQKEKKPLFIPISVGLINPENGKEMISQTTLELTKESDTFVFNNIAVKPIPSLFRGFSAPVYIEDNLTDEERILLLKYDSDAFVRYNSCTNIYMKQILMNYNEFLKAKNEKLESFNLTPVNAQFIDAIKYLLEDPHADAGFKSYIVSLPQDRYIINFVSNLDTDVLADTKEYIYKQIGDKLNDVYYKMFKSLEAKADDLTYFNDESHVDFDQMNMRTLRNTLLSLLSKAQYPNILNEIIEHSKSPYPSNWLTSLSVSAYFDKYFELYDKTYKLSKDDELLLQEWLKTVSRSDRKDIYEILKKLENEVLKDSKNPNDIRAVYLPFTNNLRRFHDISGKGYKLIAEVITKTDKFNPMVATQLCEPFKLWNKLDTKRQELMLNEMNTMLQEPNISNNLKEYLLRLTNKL

[6] = LGR2 antagonists, dose response, cell-based, HEK293, CRE-luciferase reporter, cherry pick, set 2 (AID 743343); format: functional;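 further: transfected cells were stimulated with diluted bursicon conditioned medium after compound addition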
HeLa = assay: HeLa cell cytotoxicity, dose response, cytotoxicity control, 24 h, cherry-picked samples (AID 504726); format: functional, cell-based; conditions: Homo sapiens;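 further: potency for cytotoxicity as loss of luminescence signal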
[7] = HEK293 cell cytotoxicity, dose response, cytotoxicity control, plate reader, cherry-picked samples (AID 743446); format: functional, cell-based
[8] = off-target signal loss in HeLa-CEM21 co-culture – HeLa F-luc CTL cells, cherry-picked, counter-screen for HIV-1 Env fusion inhibitor project, dose response (AID 652040); format: functional, cell-based;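 further: potency for signal decrease marking cytotoxic or nonspecific inhibition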
[9] = biological target: T2, Microphthalmia-associated transcription factor (Homo sapiens, UniProt O75030); assay: TRPM1 promoter luciferase signal decrease, dose response, MITF inhibitor project, cell-based, SK-MEL-5, cherry-picked, set 3 (AID 493073); format: functional
T2 sequence (O75030 whole entry): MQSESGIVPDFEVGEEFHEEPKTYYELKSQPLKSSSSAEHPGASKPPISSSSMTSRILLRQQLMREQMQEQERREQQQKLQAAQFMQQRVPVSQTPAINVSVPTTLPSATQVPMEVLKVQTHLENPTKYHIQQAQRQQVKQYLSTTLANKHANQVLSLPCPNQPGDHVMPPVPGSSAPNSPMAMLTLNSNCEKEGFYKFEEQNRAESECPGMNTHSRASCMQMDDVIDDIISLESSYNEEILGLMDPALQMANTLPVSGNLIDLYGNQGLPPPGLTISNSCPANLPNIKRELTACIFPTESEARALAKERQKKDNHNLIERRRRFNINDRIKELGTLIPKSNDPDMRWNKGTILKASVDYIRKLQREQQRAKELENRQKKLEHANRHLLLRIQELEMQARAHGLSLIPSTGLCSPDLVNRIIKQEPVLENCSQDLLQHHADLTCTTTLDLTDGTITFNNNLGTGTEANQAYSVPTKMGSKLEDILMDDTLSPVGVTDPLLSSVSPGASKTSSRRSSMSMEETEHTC

[10] = inhibitors of clade B AD8 Env fusion, dose response, cell-based, cherry-pick (AID 652062); format: functional;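 further: luciferase signal from cell-cell fusion driven by HIV-1 clade B AD8 Env; potency is for inhibitors of fusion seen as a drop in luminescence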
[11] = ZM109 Env clade C HIV-1 fusion inhibitors, dose response, HeLa effector, CEM target cells, luciferase, cherry-pick (AID 652058); format: functional, cell-based
Paired box protein Pax-8 = Paired box protein Pax-8 (Homo sapiens, UniProt Q06710); assay: inhibitors of PAX8-driven TPO luciferase reporter, dose response, RMG-I cells, cherry-pick (AID 687027); format: functional, cell-based;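 further: luciferase reporter driven by Pax8 target thyroperoxidase promoter measured by SteadyGlo luminescence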
Chain of Paired box protein Pax-8 (Q06710 whole entry): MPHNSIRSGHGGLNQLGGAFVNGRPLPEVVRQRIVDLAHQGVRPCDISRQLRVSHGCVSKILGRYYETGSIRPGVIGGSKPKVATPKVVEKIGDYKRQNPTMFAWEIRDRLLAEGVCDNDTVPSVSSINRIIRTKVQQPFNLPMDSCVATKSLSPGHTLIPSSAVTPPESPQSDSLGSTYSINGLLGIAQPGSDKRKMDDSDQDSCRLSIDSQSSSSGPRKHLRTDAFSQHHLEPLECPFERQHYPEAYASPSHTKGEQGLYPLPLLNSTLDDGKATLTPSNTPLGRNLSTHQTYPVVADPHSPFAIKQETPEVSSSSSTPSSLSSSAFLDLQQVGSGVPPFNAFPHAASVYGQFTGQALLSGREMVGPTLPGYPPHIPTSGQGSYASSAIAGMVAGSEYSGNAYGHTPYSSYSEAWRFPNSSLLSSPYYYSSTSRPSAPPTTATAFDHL

[12] = Counterscreen for IDE inhibitors: Luminescence-based cell-based high throughput dose response assay to identify compounds that are cytotoxic to HEK cells. [Related pubchem assays: 434962 (Primary screen (IDE inhibitors in singlicate)), 449730 (Counterscreen (Cytotoxicity in triplicate)), 435028 (Confirmation (IDE inhibitors in triplicate)) …; format: functional; conditions: HEK293
Insulin-degrading enzyme = biological target: T3, Insulin-degrading enzyme (Homo sapiens, UniProt P14735); assay: Dose Response: Fluorescence polarization-based cell-based high throughput dose response assay for inhibitors of insulin-degrading enzyme (IDE). [Related pubchem assays: 434962 (Primary screen (IDE inhibitors in singlicate)), 449730 (Counterscreen (Cytotoxicity in triplicate)), 435028 (Confirmation (IDE inhibitors in triplicate)), 434984 (Summary …; format: functional
T3 sequence (P14735 whole entry): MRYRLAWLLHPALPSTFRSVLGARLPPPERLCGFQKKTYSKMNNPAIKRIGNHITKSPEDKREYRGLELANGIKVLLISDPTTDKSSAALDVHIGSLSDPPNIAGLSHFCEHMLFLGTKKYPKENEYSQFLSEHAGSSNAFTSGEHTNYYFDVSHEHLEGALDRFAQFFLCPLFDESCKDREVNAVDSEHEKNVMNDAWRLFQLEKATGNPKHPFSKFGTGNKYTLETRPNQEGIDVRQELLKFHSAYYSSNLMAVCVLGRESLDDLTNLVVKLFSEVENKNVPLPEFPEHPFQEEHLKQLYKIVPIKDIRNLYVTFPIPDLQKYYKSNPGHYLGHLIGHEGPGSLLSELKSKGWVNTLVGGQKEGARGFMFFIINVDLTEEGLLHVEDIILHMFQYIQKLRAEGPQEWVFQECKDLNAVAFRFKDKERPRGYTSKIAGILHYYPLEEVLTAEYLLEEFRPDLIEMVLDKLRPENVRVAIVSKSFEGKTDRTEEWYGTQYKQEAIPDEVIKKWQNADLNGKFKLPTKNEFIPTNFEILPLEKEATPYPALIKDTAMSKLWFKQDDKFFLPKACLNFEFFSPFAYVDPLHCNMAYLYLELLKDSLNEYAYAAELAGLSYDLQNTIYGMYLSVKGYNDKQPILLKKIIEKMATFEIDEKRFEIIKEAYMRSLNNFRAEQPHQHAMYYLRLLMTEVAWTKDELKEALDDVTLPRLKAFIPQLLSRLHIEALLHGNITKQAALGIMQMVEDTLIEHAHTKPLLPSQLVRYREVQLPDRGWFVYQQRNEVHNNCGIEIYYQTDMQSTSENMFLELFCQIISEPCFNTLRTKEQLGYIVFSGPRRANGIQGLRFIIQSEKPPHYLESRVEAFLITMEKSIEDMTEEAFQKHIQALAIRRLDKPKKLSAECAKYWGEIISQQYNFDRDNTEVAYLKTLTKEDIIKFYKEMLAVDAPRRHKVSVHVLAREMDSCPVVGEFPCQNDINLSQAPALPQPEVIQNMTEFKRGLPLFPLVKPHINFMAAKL

Large T antigen = Large T antigen (Simian virus 40, UniProt P03070); format: functional, Betapolyomavirus macacae;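 further: Confirmatory-stage PubChem screen for compounds that inhibit SV40 T antigen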
Chain of Large T antigen (P03070 whole entry): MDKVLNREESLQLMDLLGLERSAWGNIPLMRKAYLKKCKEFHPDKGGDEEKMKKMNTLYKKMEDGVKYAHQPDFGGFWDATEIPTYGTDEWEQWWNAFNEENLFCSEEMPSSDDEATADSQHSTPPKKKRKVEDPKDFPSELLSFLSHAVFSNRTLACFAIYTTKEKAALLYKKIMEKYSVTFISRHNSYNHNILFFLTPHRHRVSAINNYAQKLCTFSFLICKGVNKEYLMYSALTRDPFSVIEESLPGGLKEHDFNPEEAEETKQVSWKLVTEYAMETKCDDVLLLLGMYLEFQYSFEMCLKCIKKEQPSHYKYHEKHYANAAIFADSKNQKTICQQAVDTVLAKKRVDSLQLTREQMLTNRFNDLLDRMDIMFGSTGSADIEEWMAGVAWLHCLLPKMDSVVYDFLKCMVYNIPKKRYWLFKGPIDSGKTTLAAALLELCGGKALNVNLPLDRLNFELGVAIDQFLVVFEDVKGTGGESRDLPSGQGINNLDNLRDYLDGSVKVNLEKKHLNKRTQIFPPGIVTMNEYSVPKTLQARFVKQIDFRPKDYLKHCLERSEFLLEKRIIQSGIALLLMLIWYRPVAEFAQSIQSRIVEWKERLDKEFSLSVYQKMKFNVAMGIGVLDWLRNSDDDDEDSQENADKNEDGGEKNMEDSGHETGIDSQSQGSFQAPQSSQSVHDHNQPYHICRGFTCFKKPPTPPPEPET

Vero = assay: cytotoxicity of synthesized analogs in Vero cells, SAR follow-up, cytotoxicity control for West Nile virus antiviral project, cell-based, set II (AID 2402); format: functional; conditions: Chlorocebus sabaeus
[13] = A Cell Based Assay for the Identification of Probe candidate Compounds with Anti- Venezuelan Equine Encephalitis virus. [Related pubchem assays: 2409, 2419, 1621, 2238, 2405, 2024, 2065, 2402, 2414, 1635, 1650, 2244 ]; format: functional

Chain of FAD-linked sulfhydryl oxidase ALR (P55789 whole entry): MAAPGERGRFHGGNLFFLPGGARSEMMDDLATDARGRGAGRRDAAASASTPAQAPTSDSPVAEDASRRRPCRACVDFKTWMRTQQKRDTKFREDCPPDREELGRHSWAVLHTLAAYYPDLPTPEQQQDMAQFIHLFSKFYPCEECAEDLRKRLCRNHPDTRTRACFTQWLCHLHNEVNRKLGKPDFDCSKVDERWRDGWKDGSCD

## Nc1ccc(-c2nc3ccc(C(=O)O)cc3s2)cc1
[1]
  AC50: 1.03 µM (active)
[2]
  AC50: 0.839 µM (active)
[3]
  AC50: 30.4 µM (active)
[4]
  IC50: > 39.8 µM (not active)
[5]
  AC50: 0.649 µM (active)
Aminopeptidase N
  IC50: 25.7 µM (active)
[6]
  AC50: 0.749 µM (active)
HeLa
  AC50: 313 µM (active)
[7]
  AC50: 48.6 µM (active)
[8]
  AC50: 1.91 µM (active)
[9]
  AC50: 0.866 µM (active)
[10]
  AC50: 1.6 µM (active)
[11]
  AC50: 4.57 µM (active)
Paired box protein Pax-8
  AC50: 2.6 µM (active)

## COc1cc(-c2cc(=O)c3ccccc3o2)ccc1O
[12]
  IC50: > 55.6 µM (not active)
Insulin-degrading enzyme
  IC50: > 6.21 µM (active)
Large T antigen
  IC50: 9.46 µM (active)

## COc1ccc(Cn2nc(C)cc2OC(=O)c2c(F)ccc(C)c2F)cc1
Vero
  CC50: > 200 µM (active)
[13]
  IC50: 131 µM (active)

Source: ChEMBL document CHEMBL1201862, “PubChem BioAssay data set” (2004)
